Measured values as given in ChEMBL document CHEMBL6109117, “Synthesis of an RBM39 Degrader That Downregulates CEP192 and Induces Disorganized Spindle Structures” (J Med Chem, 2025).

Assay: Effect on RNA splicing in human K562 cells assessed as number of mutually exclusive exons at 2 uM incubated for 12 hrs by RNA-seq analysis
Type: functional

In the case of Cc1ccc(NS(=O)(=O)c2cccc(NC(=O)C(=O)N3CCC[C@@H]3CO)c2)c2[nH]cc(C#N)c12, the Activity is reported as 1801.
